Measurements from patent US20080176810A1, “Use of 3, 4', 5-Trihydroxy-Stilbene-3-Beta-D-glucoside in Prepartion of Medicines For Treating and/or Preventing Ischemic Heart Disease” (SHENZHEN NEPTUNUS PHARMACEUTICAL CO., LTD., priority 2004, published 2008).
Where two headings read alike, the source gives them in different places.

Key:
platelet aggregation = settings: 6~100 μmol/L TSG; cited from earlier work
[1] = system: isolated carotid and pulmonary arteries; settings: cited from earlier work
anesthetized dogs = assay: Hemodynamics in anesthetized dogs, iv; type: in vivo
Protocol: Solvent control group, Isosorbide Dinitrate control group (0.4 mg/kg/h) and administration groups of 3,4′,5-trihydroxy-stilbene-3-[…]-D-glucoside at low (2.5 mg/kg), middle (5 mg/kg) or high (10 mg/kg) doses were set up for the test. Isosorbide Dinitrate control group were medicated by continuous intravenous infusion and other groups by intravenous injection.
After anesthetized with pentobarbital sodium, the dog was immobilized on its back. A femoral artery was separated for insertion of a catheter to record blood pressure of artery. A cardiac catheter was guided inversely from right common carotid artery into its left ventricle. Both catheters were connected to pressure transmitters. After pressure signals were amplified with carriers, they were input into an electrophysiolograph Powerlab system 8s, (ML785/8S AD Instruments, Australia). Needle electrodes were punctured into four limbs to monitor standard 2-lead ECG. A computer (chart4.12, ML785/8S, AD Instruments, Australia) were applied for real-time monitoring and storage of data. After operation, there were 30 minutes for stableness and then basic indexes were recorded before administration. Negative control group were given by […] injection of solvent at 2 ml/kg, while positive control group were intravenously infused at 0.4 mg/kg/h. […]
Indexes of observation included heart rate (HR), systolic blood pressure (BPs), diastolic blood pressure, mean blood pressure, left ventricular systolic pressure (LVSP), left ventricular diastolic pressure (LVDP), the maximum change rate of left ventricular systolic pressure rise and fall (±dp/dtmax), left ventricular end diastolic pressure and ECG.
Significance of differences was checked.

[2] = TSG 2.5 mg/kg iv, Time c1-c5: 0,10,30,60,120 min, 10 min after dosing
[3] = TSG 2.5 mg/kg iv, Time c1-c5: 0,10,30,60,120 min, 30 min after dosing
[4] = TSG 2.5 mg/kg iv, Time c1-c5: 0,10,30,60,120 min, 60 min after dosing
[5] = TSG 2.5 mg/kg iv, Time c1-c5: 0,10,30,60,120 min, 120 min after dosing
[6] = TSG 2.5 mg/kg iv, Time c1-c5: 0,10,30,60,120 min, before dosing (0 min)
[7] = TSG 5 mg/kg iv, Time c1-c5: 0,15,30,60,120 min, 0 min, before dosing
[8] = TSG 5 mg/kg iv, Time c1-c5: 0,15,30,60,120 min, 15 min after dosing

Substance: 3,4′,5-trihydroxy-stilbene-3-β-D-glucoside [TSG]
- platelet aggregation and production of thromboxane B2 induced by arachidonic acid, adenosine diphosphate and adrenalin (platelet aggregation): inhibited
- effect on vasoconstriction of noadrenalin ([1]; 1.37 mM): no noticeable effect
- effect on vasoconstriction of noadrenalin ([1]; 1.71 mM): antagonistic effect
- effect on isolated carotid and pulmonary arteries ([1]; 3.28 mM): no noticeable effect
- effect on isolated carotid and pulmonary arteries ([1]; 5.12 mM): may relax
- +dp/dt max (anesthetized dogs; [2]): 829.1 ± 308.3 Kpa/s
- BPd (anesthetized dogs; [2]): 18.3 ± 2.3 KPa
- BPm (anesthetized dogs; [2]): 20.7 ± 2.1 KPa
- BPs (anesthetized dogs; [2]): 24.5 ± 2.0 KPa
- HR (anesthetized dogs; [2]): 160.4 ± 18.4 p/min
- LVDP (anesthetized dogs; [2]): 0.45 ± 2.40 KPa
- LVEDP (anesthetized dogs; [2]): 1.00 ± 2.33 KPa
- LVSP (anesthetized dogs; [2]): 25.2 ± 4.2 KPa
- −dp/dt max (anesthetized dogs; [2]): 777.3 ± 241.8 Kpa/s
- +dp/dt max (anesthetized dogs; [3]): 869.6 ± 235.9 Kpa/s
- BPd (anesthetized dogs; [3]): 18.5 ± 2.2 KPa
- BPm (anesthetized dogs; [3]): 20.8 ± 1.7 KPa
- BPs (anesthetized dogs; [3]): 24.7 ± 1.3 KPa
- HR (anesthetized dogs; [3]): 161.7 ± 18.0 p/min
- LVDP (anesthetized dogs; [3]): 0.28 ± 2.40 KPa
- LVEDP (anesthetized dogs; [3]): 1.11 ± 2.50 KPa
- LVSP (anesthetized dogs; [3]): 25.7 ± 3.8 KPa
- −dp/dt max (anesthetized dogs; [3]): 873.9 ± 236.8 Kpa/s
- +dp/dt max (anesthetized dogs; [4]): 993.9 ± 206.2 Kpa/s
- BPd (anesthetized dogs; [4]): 19.1 ± 2.5 KPa
- BPm (anesthetized dogs; [4]): 21.6 ± 2.0 KPa
- BPs (anesthetized dogs; [4]): 25.5 ± 1.6 KPa
- HR (anesthetized dogs; [4]): 171.1 ± 18.8 p/min
- LVDP (anesthetized dogs; [4]): 0.26 ± 2.35 KPa
- LVEDP (anesthetized dogs; [4]): 0.78 ± 2.37 KPa
- LVSP (anesthetized dogs; [4]): 26.5 ± 2.5 KPa
- −dp/dt max (anesthetized dogs; [4]): 905.9 ± 207.8 Kpa/s
- +dp/dt max (anesthetized dogs; [5]): 957.9 ± 190.0 Kpa/s
- BPd (anesthetized dogs; [5]): 18.1 ± 1.8 KPa
- BPm (anesthetized dogs; [5]): 20.2 ± 2.3 KPa
- BPs (anesthetized dogs; [5]): 23.7 ± 3.3 KPa
- HR (anesthetized dogs; [5]): 170.5 ± 16.1 p/min
- LVDP (anesthetized dogs; [5]): 0.50 ± 2.06 KPa
- LVEDP (anesthetized dogs; [5]): 1.09 ± 2.16 KPa
- LVSP (anesthetized dogs; [5]): 26.7 ± 2.3 KPa
- −dp/dt max (anesthetized dogs; [5]): 852.5 ± 159.6 Kpa/s
- +dp/dt max (anesthetized dogs; [6]): 853.1 ± 321.1 Kpa/s
- BPd (anesthetized dogs; [6]): 18.5 ± 1.7 KPa
- BPm (anesthetized dogs; [6]): 21.1 ± 2.0 KPa
- BPs (anesthetized dogs; [6]): 25.3 ± 3.0 KPa
- HR (anesthetized dogs; [6]): 163.7 ± 21.1 p/min
- LVDP (anesthetized dogs; [6]): 0.39 ± 2.20 KPa
- LVEDP (anesthetized dogs; [6]): 1.14 ± 2.18 KPa
- LVSP (anesthetized dogs; [6]): 24.9 ± 4.0 KPa
- −dp/dt max (anesthetized dogs; [6]): 772.0 ± 201.0 Kpa/s
- +dp/dt max (anesthetized dogs; [7]): 822.6 ± 353.8 Kpa/s
- BPd (anesthetized dogs; [7]): 18.9 ± 4.2 KPa
- BPm (anesthetized dogs; [7]): 21.1 ± 4.7 KPa
- BPs (anesthetized dogs; [7]): 25.4 ± 6.4 KPa
- HR (anesthetized dogs; [7]): 177.2 ± 35.5 p/min
- LVEDP (anesthetized dogs; [7]): 1.05 ± 1.34 KPa
- LVSP (anesthetized dogs; [7]): 24.1 ± 4.4 KPa
- −dp/dt max (anesthetized dogs; [7]): 866.2 ± 350.7 Kpa/s
- +dp/dt max (anesthetized dogs; [8]): 793.8 ± 299.0 Kpa/s
- BPd (anesthetized dogs; [8]): 18.7 ± 4.4 KPa
- BPs (anesthetized dogs; [8]): 25.4 ± 5.8 KPa
- HR (anesthetized dogs; [8]): 171.0 ± 35.6 p/min
